Results from patent publication US20250250302A1, “SYNTHESIS OF SELF-ASSEMBLING ARTIFICIAL PROTEINS UTILIZING A HOST-GUEST SYSTEM AND USES THEREOF” (Indian Institute of Science Education and Research, Pune …, priority 2024, published 2025).

Assay: solubility test of α, β, and γcyclodextrin in water
Settings: compared with β cyclodextrin

For `OC[C@H]1O[C@@H]2O[C@H]3[C@H](O)[C@@H](O)[C@@H](O[C@H]4[C@H](O)[C@@H](O)[C@@H](O[C@H]5[C@H](O)[C@@H](O)[C@@H](O[C@H]6[C@H](O)[C@@H](O)[C@@H](O[C@H]7[C@H](O)[C@@H](O)[C@@H](O[C@H]1[C@H](O)[C@H]2O)O[C@@H]7CO)O[C@@H]6CO)O[C@@H]5CO)O[C@@H]4CO)O[C@@H]3CO` [a], the solubility in water was “better solubility in water compared to β cyclodextrin”.
